This passage reports inhibition results from publication PMC7736581, “Activation of the IRE1 RNase through remodeling of the kinase front pocket by ATP-competitive ligands” (Nature Communications, 2020).

Molecules are shown by their SMILES.

Common to all, as to assay: biochemical
Parameters in all cases: Invitrogen kinase panel: Z'Lyte activity (ATP at Km) or LanthaScreen competitive ATP-site binding, percent inhibition
(TR-FRET usually uses a lanthanide donor and a delayed reading to cut background.)

One assay addresses T1, CHK1 (Homo sapiens, UniProt O14757).
T1 construct: gene CHEK1
T1 sequence (O14757 1-476): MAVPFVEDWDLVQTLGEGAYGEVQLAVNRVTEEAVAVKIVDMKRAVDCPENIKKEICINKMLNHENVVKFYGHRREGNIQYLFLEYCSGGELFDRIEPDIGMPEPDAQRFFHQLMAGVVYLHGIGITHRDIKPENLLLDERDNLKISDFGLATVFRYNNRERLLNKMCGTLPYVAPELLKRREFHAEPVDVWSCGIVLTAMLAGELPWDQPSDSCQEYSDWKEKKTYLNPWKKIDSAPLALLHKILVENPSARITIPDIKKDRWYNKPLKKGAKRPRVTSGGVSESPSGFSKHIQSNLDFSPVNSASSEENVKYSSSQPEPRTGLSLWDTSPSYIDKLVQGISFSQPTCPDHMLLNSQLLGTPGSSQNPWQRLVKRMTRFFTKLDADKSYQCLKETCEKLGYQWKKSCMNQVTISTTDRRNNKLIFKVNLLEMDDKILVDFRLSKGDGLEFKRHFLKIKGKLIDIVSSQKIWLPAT

The next assay concerns the target T2, IKK_epsilon (Homo sapiens, UniProt Q14164).
T2 construct: gene IKBKE
T2 sequence (Q14164 1-716): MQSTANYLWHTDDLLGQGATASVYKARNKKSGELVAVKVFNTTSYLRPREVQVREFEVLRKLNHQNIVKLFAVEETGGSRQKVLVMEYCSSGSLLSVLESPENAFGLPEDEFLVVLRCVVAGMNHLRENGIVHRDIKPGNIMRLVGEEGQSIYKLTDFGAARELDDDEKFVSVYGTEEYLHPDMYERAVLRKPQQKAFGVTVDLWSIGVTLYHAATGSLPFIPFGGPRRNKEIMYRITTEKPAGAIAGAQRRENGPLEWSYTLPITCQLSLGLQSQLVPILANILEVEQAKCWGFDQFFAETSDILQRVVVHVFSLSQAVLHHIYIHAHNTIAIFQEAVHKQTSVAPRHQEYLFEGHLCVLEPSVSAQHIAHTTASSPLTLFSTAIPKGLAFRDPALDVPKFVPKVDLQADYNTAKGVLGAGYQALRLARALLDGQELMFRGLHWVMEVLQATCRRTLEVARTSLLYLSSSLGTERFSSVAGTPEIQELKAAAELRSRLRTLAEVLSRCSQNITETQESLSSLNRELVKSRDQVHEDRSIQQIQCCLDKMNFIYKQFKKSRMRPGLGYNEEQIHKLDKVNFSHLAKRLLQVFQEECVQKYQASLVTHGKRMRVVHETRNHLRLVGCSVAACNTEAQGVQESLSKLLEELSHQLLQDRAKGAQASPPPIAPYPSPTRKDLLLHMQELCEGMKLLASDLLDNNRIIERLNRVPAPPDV

For another assay, the target named is T3, ITK (Homo sapiens, UniProt Q08881).
T3 sequence (Q08881 1-620): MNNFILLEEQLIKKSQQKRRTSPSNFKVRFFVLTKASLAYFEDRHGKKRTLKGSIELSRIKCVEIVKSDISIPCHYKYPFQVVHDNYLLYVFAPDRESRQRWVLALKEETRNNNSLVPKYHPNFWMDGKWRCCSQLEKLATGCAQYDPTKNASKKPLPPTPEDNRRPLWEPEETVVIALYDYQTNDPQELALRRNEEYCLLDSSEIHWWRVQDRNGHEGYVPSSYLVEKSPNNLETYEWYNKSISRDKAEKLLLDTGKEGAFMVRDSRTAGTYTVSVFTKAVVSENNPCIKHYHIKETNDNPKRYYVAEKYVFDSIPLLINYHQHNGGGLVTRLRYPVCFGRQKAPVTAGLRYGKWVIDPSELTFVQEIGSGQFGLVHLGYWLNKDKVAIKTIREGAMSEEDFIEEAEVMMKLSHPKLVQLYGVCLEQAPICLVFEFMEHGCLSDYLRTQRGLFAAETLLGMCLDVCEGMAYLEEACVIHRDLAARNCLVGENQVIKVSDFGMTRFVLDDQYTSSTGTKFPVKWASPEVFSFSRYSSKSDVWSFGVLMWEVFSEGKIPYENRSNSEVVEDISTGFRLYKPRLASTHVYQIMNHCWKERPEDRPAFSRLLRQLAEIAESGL

The next assay deals with T4, PhK_gamma1 (Homo sapiens, UniProt Q16816).
T4 construct: gene PHKG1

A further assay deals with Syk (Homo sapiens, UniProt P43405).

T4 sequence (Q16816 whole entry): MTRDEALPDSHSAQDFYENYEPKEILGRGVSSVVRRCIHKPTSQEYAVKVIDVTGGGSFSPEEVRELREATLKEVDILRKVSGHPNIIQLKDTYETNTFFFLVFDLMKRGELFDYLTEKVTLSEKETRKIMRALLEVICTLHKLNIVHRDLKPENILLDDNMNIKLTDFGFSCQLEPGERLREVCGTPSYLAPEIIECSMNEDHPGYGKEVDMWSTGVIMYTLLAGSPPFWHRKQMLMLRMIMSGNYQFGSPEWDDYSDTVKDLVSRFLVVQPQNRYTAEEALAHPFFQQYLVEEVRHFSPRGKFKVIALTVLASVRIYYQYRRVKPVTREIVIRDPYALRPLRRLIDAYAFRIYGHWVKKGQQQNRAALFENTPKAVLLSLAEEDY

By inhibition is commonly meant the drop in the measured response relative to a control, in per cent. With `O=c1cc(-c2n[nH]c3ncc(-c4c(F)cccc4F)cc23)nc(N2CCC(O)CC2)[nH]1` [G-9807], the inhibition at 1 µM is 94.8% on CHK1; 86.5% on IKK_epsilon; 81.3% at ITK; 92.2% at PhK_gamma1; 52% on Syk.

For the compound `CC#CC(=O)Nc1cccc2c(Oc3ncccc3-c3ccnc(N[C@H]4CCCNC4)n3)c(C)ccc12` [G-7658], the inhibition at 1 µM on CHK1 was 4%; at IKK_epsilon, 6.5%; on ITK, 0%; on PhK_gamma1, 1%; on Syk it was -4.5%.

With `CCOC(=O)Nc1cccc2c(Oc3ncccc3-c3ccnc(N[C@H]4CCCNC4)n3)c(C)ccc12` [G-1749], the inhibition at 1 µM on CHK1 was 7.5%; on IKK_epsilon, 4%; on ITK, 5%; at PhK_gamma1 it was 2%; at Syk, -2.5%.
